Data set [1] can be described thus: Incubation of MPZ in human intestine S9. Conditions: human intestine S9 1 mg/mL, 2.5 μM MPZ, 60 min. Format: in vitro ADME. On the procedure: (§1) Initial experiment was conducted with S9 fractions from liver and intestine to assess the role of liver and intestinal enzymes in the metabolism of MPZ. The reaction mixture contained 2.5 μM MPZ, pooled human liver or intestine S9 fraction (1 mg/mL S9 protein), 100 mM KPi buffer (pH 7.4). The reaction mixture was pre-incubated for 3-5 min at 37° C. in a humidified incubator filled with 5% CO2 followed by the addition of NADPH (1 mM) to initiate the reaction. The reaction was incubated for 0 and 60 min. The total percentage of organic solvent in incubation mixture was <0.1%. The reactions were terminated by the addition of sample mixture of acetonitrile and ethanol (90:10, v/v). The positive control substrate, 7-EC, was incubated in triplicate in an identical manner as MPZ for S9 fractions.

The conditions of data set [2]: for Peak Area at Time 0 / Peak Area at Time 90 min: metopimazine incubation in human liver microsomes, full scan LC-MS. On the procedure:
For protein concentration optimization, MPZ at 1 μM was incubated with varying concentration of HLM proteins (0.1, 0.25, 0.5, and 1.0 mg/mL microsomal protein), 100 mM KPi buffer (pH 7.4). After pre-incubation for 3-5 minutes at 37° C., the reaction was initiated by the addition of NADPH (1 mM) for 60 minutes in triplicates.
For incubation time optimization, MPZ at 1 μM was incubated with pooled HLM (0.5 mg/mL microsomal protein) and 100 mM KPi buffer (pH 7.4). After pre-incubation for) for 3-5 minutes at 37° C., the reaction was initiated by the addition NADPH (1 mM) incubated for 0, 10, 20, 40, 60, and 90 minutes to determine the optimal incubation time (linear range). All metabolic reactions in this study were terminated by the addition of chilled organic solvent (acetonitrile:ethanol 90:10, v/v) containing internal standards, unless otherwise indicated.
LC separation conditions were developed for MPZ and its metabolites (MPZA and MPZS), 7 hydroxycoumarin, each metabolite of CYP probe substrate, benzydamine N oxide, and phthalazine. The LC MS/MS system consisted of a Shimadzu Nexera X2 LC-30 UPLC system (Shimadzu Corporation, Kyoto, Japan), and an API 4000 triple quadrupole mass spectrometer (SCIEX, Framingham, MA) was used for analysis. All analytes were analyzed using electrospray ionization (ESI) in positive ion mode except for 7-EC, which used negative ion mode. The LC-MS/MS system was controlled by Analyst software (version 1.6.1, SCIEX, Framingham, MA).
For each analytical method, a calibration curve was generated for the quantification of MPZ and its two metabolites (MPZA and MPZS). […] PAR was also used for all positive control compounds.
% parent remaining=(mean concentration or PAR at each sampling time point/mean concentration or PAR of time zero)×100

Data set [3] is described as follows: Rat PK study. Format: in vivo, Sprague Dawley rats. On the procedure: The pharmacokinetics of metopimazine (parent) and metopimazine acid (metabolite) were evaluated in male and female Sprague Dawley rats following a single oral dose of 45 mg/kg metopimazine (free base). Three animals per sex in each dose group were sampled at each timepoint after administration (0.25, 0.5, 1, 2, 4, 8, 12, and 24 hours). The rats (Rattus norvegicus) were obtained from Envigo RMS, Inc. (Indianapolis, IN) and were 2 months old. Animals were weighed prior to each dose administration for the purpose of dose calculation. Whole venous blood samples of approximately 0.5 mL were collected from a peripheral vein of animals for determination of exposure to metopimazine and metopimazine acid. Three animals per sex were sampled at each timepoint. Samples were collected in tubes containing K2EDTA with protease inhibitor cocktail (Sigma, #P8340, at ratio 1:100) and placed on ice until processed for plasma by centrifugation under refrigeration for at least ten minutes at 3000 rpm. After centrifugation, supernatant was removed and stored frozen in a −70° C. freezer until analyzed by LC-MS/MS.
(§2) An MRM LC-MS/MS method was developed for MPZ and metopimazine acid (MPZA) in rat, dog, and human plasma. The method was run in reverse phase in positive ion mode. […] D6-isotopically labeled internal standards were used for each analyte. The following m/z transitions were monitored: metopimazine 446.3→141.1 and metopimazine acid 447.2→142.1.
(§3) Noncompartmental Pharmacokinetics analysis was performed in Phoenix 64 Winnonlin version 8.1.

Data set [4] in a line: Incubation of MPZ in human liver S9. Format: in vitro ADME. As for the experimental part: as §1
Data set [5] in a line: Dog PK study. In kind it is in vivo, beagle dogs. On the procedure: The pharmacokinetics of metopimazine (parent) and metopimazine acid (metabolite) were evaluated in three male, beagle dogs following a single oral dose of 10 mg/kg metopimazine (free base). The dogs were obtained from Marshall BioResources (North Rose, NY). Animals were weighed prior to each dose administration for the purpose of dose calculation. Metopimazine was administered in size 13 gelatin capsules. Whole venous blood samples of approximately 1.0 mL were collected from a peripheral vein of all animals for determination of metopimazine and metopimazine acid. Samples were collected at the following timepoints: 0.25, 0.5, 1, 2, 4, 8, 12, and 24 hours after test article administration. All animals were sampled at each timepoint. Samples were collected in tubes containing K2EDTA and placed on ice until processed for plasma by centrifugation under refrigeration for at least ten minutes at 3000 rpm. After centrifugation, supernatant was removed and stored frozen in a −70° C. freezer until analyzed by LC-MS/MS.
as §2, §3

Data set [6] concerns human microsomal liver amidase. The data set is described as follows: Incubations with HLM for microsomal hydrolase/amidase activity. In kind it is in vitro ADME. The following applies: HLM, 10 μM MPZ, 60 min, pH 7.4, 8.4 and 9.4. On the procedure:
Incubations with HLM for Microsomal Hydrolase/Amidase Activity Prior to the reaction for amidase activity, the reaction mixture containing KPi buffer (pH 7.4, 8.4, or 9.4) and HLM was pre-incubated at 50° C. for 5 minutes to inactivate CYP and FMO activities in HLM. The mixture was placed on ice to cool down. An aliquot was taken out which was considered as t=0 min incubation. Then 10 μM MPZ was added into the remaining mixture and incubated at 37° C. on an orbital shaker for 60 minutes. A parallel set of incubations was conducted with 10 μM MPZ in the presence at 2 and 16 μM, of BNPP (a known inhibitor of amidase). All reactions were in triplicate. The total percentage of organic solvent in incubation mixture was ≤0.1%. The reactions were terminated by the addition of chilled acetonitrile: methanol, 90:10, (v/v). The samples were vortex-mixed and stored at ≤−70° C. and were subjected analyzed by LC MS/MS.

Where [7] appears, read: female, Sprague Dawley, rat, in vivo, po, 45 mg/kg.
Where [8] appears, read: male, Sprague Dawley, rat, in vivo, po, 45 mg/kg.
Setting [9] is: male, beagle, dog, in vivo, po, 10 mg/kg.

“Also recorded” adds a separate entry of the source.

`CS(=O)(=O)c1ccc2c(c1)N(CCCN1CCC(C(N)=O)CC1)c1ccccc1S2` [MPZ, metopimazine]: in data set [1], the “metabolism of MPZ” value was “virtually no metabolism”. Further, in data set [2] (human, microsomes, 1 h, 1 μM, pH 7.4), the MPZ remaining is on record as 37.2%. In data set [2], the “Peak Area at Time 0” value is 2373 and the “Peak Area at Time 90 min” value stood at 715. In addition, in data set [3] (setting [7]), the AUCinf was 13800 ng·h/mL, the Cmax is 1730 ng/mL and the Tmax came out at 4 h. In data set [3] (setting [8]), this compound yielded an AUCinf of 8160 ng·h/mL and a Cmax of 1080 ng/mL. Further, in data set [4] (human liver S9 1 mg/mL, 2.5 μM MPZ, NADPH, 60-minute incubation), the MPZ disappeared entry is recorded as “approximately 30%”. In data set [5] (setting [9]), the area under the curve AUC(0-inf) is 3190 ng·h/mL and the Tmax amounted to 0.833 h.

`CS(=O)(=O)c1ccc2c(c1)N(CCCN1CCC(C(=O)O)CC1)c1ccccc1S2` [MPZA, metopimazine acid]: in data set [2], the “Peak Area at Time 0” value was 0 and the “Peak Area at Time 90 min” value worked out at 208. Further, in data set [3] (setting [7]), the AUC(0-inf) is 944 ng·h/mL, the Cmax worked out at 106 ng/mL and the Tmax is 4 h. In data set [3] (setting [8]), this compound came in with an AUCinf of 755 ng·h/mL and a maximum concentration (Cmax) of 89 ng/mL. Moreover, the “MPZA metabolite to parent ratio compared with humans” value in data set [3] (rats) is reported as “particularly lower in rats”. Also, the metabolites formed result in data set [4] (human liver S9, 60-minute incubation) is “formed”. In addition, the “MPZA metabolite to parent ratio compared with humans” value in data set [5] (dogs) is on record as “far lower in dogs”. In addition, the AUC(0-inf) in data set [5] (setting [9]) was 1030 ng·h/mL. In data set [6], the “MPZA formation as a function of pH” value was “faster the higher the pH; also recorded: maximal at the highest pH tested, pH 9.4; also recorded: occurs at all pHs and increases at pHs above physiologic pH”.

For the origin of these results see US20240156832A1, “METHODS OF METABOLIZING METOPIMAZINE AND ITS SALTS” (Neurogastrx, Inc., priority 2020, published 2024).
